Laboratory results reported in US11306105B2, “Cyano thienotriazolodiazepines and uses thereof” (Dana-Farber Cancer Institute, Inc., priority 2015, dated 2022).
Like-named read-outs stand apart in the source and are kept apart here.

Columns and labels:
BRD4(1) = BRD4(1) (Homo sapiens (Human), UniProt O60885); assay: AlphaScreen acetyl-histone binding assay, BRD4(1)
Protocol: (§1) The IC50 of the compounds were determined by ALPHASCREENING assays for BRD4 and BRDT proteins. NMC797 cell line is a BRD4 dependent NUT midline carcinoma line.
(§2) Acetyl-Histone Binding Assay. Assays were performed as described previously with minor modifications from the manufacturer's protocol (PerkinElmer, USA). All reagents were diluted in 50 mM HEPES, 100 mM NaCl, 0.1% BSA, pH 7.4 supplemented with 0.05% CHAPS and allowed to equilibrate to room temperature prior to addition to plates. A 24-point 1:2 serial dilution of the ligands was prepared over the range of 150-0 μM and 4 μl transferred to low-volume 384-well plates (ProxiPlate™-384 Plus, PerkinElmer, USA), followed by 4 μl of HIS-tagged protein (BRD4/1, 250 nM, BRD4/2 and CREBBP, 2000 nM). […] Plates were sealed and incubated for a further 30 minutes, before the addition of 4 μl of streptavidin-coated donor beads (25 μg/ml) and 4 μl nickel chelate acceptor beads (25 μg/ml) under low light conditions. Plates were foil-sealed to protect from light, incubated at room temperature for 60 minutes and read on a PHERAstar FS plate reader (BMG Labtech, Germany) using an AlphaScreen 680 excitation/570 emission filter set. IC50 values were calculated in Prism 5 (GraphPad Software, USA) after normalization against corresponding DMSO controls and are given as the final concentration of compound in the 20 μl reaction volume.

[1] = test system: NMC797 cell line (BRD4 dependent NUT midline carcinoma line); assay: Cell proliferation assay (ATP content), NMC797; format: cell-based; details: NMC797 cells, 48 h incubation
Protocol: as §1
Cell Proliferation Assay. Cells were seeded into white, 384-well microtiter plates (Nunc) at 500 cells per well in a total volume of 50 μL media. The 797, TT, and TE10 cells were grown in DMEM containing 1% penicillin/streptomycin and 10% FBS. The Per403 cells were grown in DMEM containing 1% penicillin/streptomycin and 20% FBS. Compounds were delivered to microtiter assay plates by robotic pin transfer (PerkinElmer JANUS equipped with a V&P Scientific 100 nL pin tool). Following a 48 h incubation at 37° C., cells were lysed and wells were assessed for total ATP content using a commercial proliferation assay (Cell TITERGLO; Promega). Replicate measurements were analyzed with respect to dose and estimates of IC50 were calculated by logistic regression ([…] PRISM).

BRDT(1) = BRDT(1) (Homo sapiens (Human), UniProt Q58F21); assay: AlphaScreen acetyl-histone binding assay, BRDT(1)
Protocol: as §1, §2

[2] = Pharmacokinetics in male CD1 mice, IV administration; format: in vivo, mouse; details: IV 5 mg/kg, whole blood; for AUC(0-inf) / AUC(0-t) / MRT inf / clearance / half-life / Vd: mouse; for half-life: read-out: Terminal t1/2 (converted); for Vd: read-out: VSS
Protocol: (§3) Pharmacokinetic parameters were determined by administration of a candidate bromodomain inhibitor to male CD1 mice. Intravenous doses were delivered at 5 mg/kg, and oral doses at 10 mg/kg (N=3). […] The compound concentration in mouse blood was monitored over 24 hour time period to check the compound concentration in blood at 5 min, […], 1 h, 2 h, 6 h, 12, 24 h via a series bleeding.

[3] = Pharmacokinetics in male CD1 mice, oral administration; format: in vivo, mouse; details: for half-life: read-out: Terminal t1/2 (converted); for F: oral 10 mg/kg vs IV 5 mg/kg
Protocol: as §3

[4] = mouse, oral 10 mg/kg, whole blood
[5] = mouse, oral 10 mg/kg, whole blood, read-out: Cmax
[6] = mouse, oral 10 mg/kg, whole blood, read-out: Tmax

With `CCNC(=O)C[C@@H]1N=C(c2ccc(Cl)cc2)c2c(sc(CC#N)c2C)-n2c(C)nnc21` [Compound 202] the IC50 (BRD4(1)) was 310 nM and the IC50 ([1]; NMC-797) was 1130 nM.

`Cc1c(CC#N)sc2c1C(c1ccc(Cl)cc1)=N[C@@H](CC(=O)NCCO)c1nnc(C)n1-2` [Compound 206] gave an IC50 (BRDT(1)) of 642 nM, an IC50 (BRD4(1)) of 197 nM and an IC50 ([1]; NMC-797) of 9630 nM.

With `COC(=O)C[C@@H]1N=C(c2ccc(Cl)cc2)c2c(sc(CC#N)c2C)-n2c(C)nnc21` [Compound 200] the IC50 (BRDT(1)) was 132 nM, the IC50 (BRD4(1)) was 48 nM and the IC50 ([1]; NMC-797) was 52 nM. It also gave an AUC(0-inf) [2] of 4050 ng·h/mL, an AUC(0-t) [2] of 4000 ng·h/mL and an MRT inf [2] of 76.8 min. It also gave a clearance [2] of 20.8 mL/min/kg, a half-life [2] of 82.8 min and a Vd [2] of 1.57 L/kg. For the same molecule, the AUC(0-inf) [3, 4] was 6040 ng·h/mL, the AUC(0-t) [3, 4] was 5520 ng·h/mL and the Cmax [3, 5] was 1500 ng/mL. It also gave a half-life [3, 4] of 118 min, a Tmax [3, 6] of 30 min and an F [3] of 72.4%.

Work on `Cc1sc2c(c1C)C(c1ccc(Cl)cc1)=N[C@@H](CC(=O)OC(C)(C)C)c1nnc(C)n1-2` [JQ1, reference compound] yielded an IC50 [1] of 21 nM, an AUCINF [2] of 2130 ng·h/mL and an AUClast [2] of 2130 ng·h/mL. The CL [2] was 39.2 mL/min/kg, the MRTINF [2] was 51.7 min and the AUCINF ([3]; oral 10 mg/kg, whole blood) was 2090 ng·h/mL. For the same molecule, the AUClast ([3]; oral 10 mg/kg, whole blood) was 2040 ng·h/mL, the Cmax ([3]; oral 10 mg/kg, whole blood) was 1180 ng/mL and the Tmax ([3]; oral 10 mg/kg, whole blood) was 15 min.

With `COC(=O)C[C@@H]1N=C(c2ccc(Cl)cc2)c2c(sc(CNS(=O)(=O)c3ccccc3)c2C)-n2c(C)nnc21` [Compound 300] the IC50 (BRDT(1)) was 60 nM, the IC50 (BRD4(1)) was 16 nM and the IC50 ([1]; NMC-797) was 61 nM.

For `Cc1c(CC#N)sc2c1C(c1ccc(Cl)cc1)=N[C@@H](CC(N)=O)c1nnc(C)n1-2` [Compound 205], the IC50 (BRDT(1)) was 612 nM, the IC50 (BRD4(1)) was 206 nM and the IC50 ([1]; NMC-797) was 903 nM.

Work on `CCNC(=O)C[C@@H]1N=C(c2ccc(C#N)cc2)c2c(sc(C)c2C)-n2c(C)nnc21` [Compound 102] yielded an IC50 (BRDT(1)) of 458 nM, an IC50 (BRD4(1)) of 120 nM and an IC50 ([1]; NMC-797) of 275 nM.

In the case of `Cc1c(CC#N)sc2c1C(c1ccc(Cl)cc1)=N[C@@H](CC(=O)N1CCOCC1)c1nnc(C)n1-2` [Compound 210], the IC50 (BRDT(1)) is reported as 1420 nM, the IC50 (BRD4(1)) is reported as 466 nM and the IC50 ([1]; NMC-797) is reported as 118 nM.

For `Cc1c(CC#N)sc2c1C(c1ccc(Cl)cc1)=N[C@@H](CC(=O)NC[C@H](C)O)c1nnc(C)n1-2` [Compound 207], the IC50 (BRD4(1)) was 623 nM and the IC50 ([1]; NMC-797) was 4250 nM.

Molecule `Cc1sc2c(c1C)C(c1ccc(C#N)cc1)=N[C@@H](CC(=O)NC[C@@H](C)O)c1nnc(C)n1-2` [Compound 108] has an IC50 (BRDT(1)) of 133 nM, an IC50 (BRD4(1)) of 52 nM and an IC50 ([1]; NMC-797) of 258 nM.

`Cc1c(CC#N)sc2c1C(c1ccc(Cl)cc1)=N[C@@H](CC(=O)NCC(F)F)c1nnc(C)n1-2` [Compound 209] gave an IC50 (BRD4(1)) of 386 nM and an IC50 ([1]; NMC-797) of 912 nM.

Work on `Cc1sc2c(c1C)C(c1ccc(C#N)cc1)=N[C@@H](CC(=O)NCCCN1CCN(C)CC1)c1nnc(C)n1-2` [Compound 103] yielded an IC50 (BRDT(1)) of 120 nM, an IC50 (BRD4(1)) of 50 nM and an IC50 ([1]; NMC-797) of 333 nM.

Molecule `Cc1c(CC#N)sc2c1C(c1ccc(Cl)cc1)=N[C@@H](CC(=O)NCCCN1CCN(C)CC1)c1nnc(C)n1-2` [Compound 203] has an IC50 (BRD4(1)) of 134 nM and an IC50 ([1]; NMC-797) of 6790 nM.

`Cc1sc2c(c1C)C(c1ccc(C#N)cc1)=N[C@@H](CC(=O)NCC(F)F)c1nnc(C)n1-2` [Compound 109] gave an IC50 (BRDT(1)) of 142 nM, an IC50 (BRD4(1)) of 37 nM and an IC50 ([1]; NMC-797) of 70 nM. It also gave an AUC(0-inf) [2] of 3510 ng·h/mL, an AUC(0-t) [2] of 3500 ng·h/mL and an MRT inf [2] of 49.7 min. For the same molecule, the clearance [2] was 23.7 mL/min/kg, the half-life [2] was 66.6 min and the Vd [2] was 1.18 L/kg. It also gave an AUC(0-inf) [3, 4] of 3780 ng·h/mL, an AUC(0-t) [3, 4] of 3630 ng·h/mL and a Cmax [3, 5] of 1210 ng/mL. The half-life [3, 4] was 101 min, the Tmax [3, 6] was 40 min and the F [3] was 53.8%.

In the case of `Cc1c(CC#N)sc2c1C(c1ccc(Cl)cc1)=N[C@@H](CC(=O)NCCN1CCOCC1)c1nnc(C)n1-2` [Compound 204], the IC50 (BRD4(1)) is reported as 300 nM and the IC50 ([1]; NMC-797) is reported as 3460 nM.

Molecule `Cc1sc2c(c1C)C(c1ccc(C#N)cc1)=N[C@@H](CC(=O)Nc1ccc(O)cc1)c1nnc(C)n1-2` [Compound 101] has an IC50 (BRDT(1)) of 120 nM, an IC50 (BRD4(1)) of 79 nM and an IC50 ([1]; NMC-797) of 133 nM.

With `Cc1sc2c(c1C)C(c1ccc(C#N)cc1)=N[C@@H](CC(=O)NCCN1CCOCC1)c1nnc(C)n1-2` [Compound 104] the IC50 (BRDT(1)) was 216 nM, the IC50 (BRD4(1)) was 53 nM and the IC50 ([1]; NMC-797) was 183 nM.

In the case of `Cc1sc2c(c1C)C(c1ccc(C#N)cc1)=N[C@@H](CC(=O)N1CCOCC1)c1nnc(C)n1-2` [Compound 110], the IC50 (BRDT(1)) is reported as 197 nM, the IC50 (BRD4(1)) is reported as 89 nM and the IC50 ([1]; NMC-797) is reported as 116 nM.

In the case of `Cc1sc2c(c1C)C(c1ccc(C#N)cc1)=N[C@@H](CC(=O)NCC(F)(F)F)c1nnc(C)n1-2` [Compound 111], the IC50 (BRD4(1)) is reported as 117 nM and the IC50 ([1]; NMC-797) is reported as 125 nM.

With `Cc1sc2c(c1C)C(c1ccc(C#N)cc1)=N[C@@H](CC(=O)NC[C@H](C)O)c1nnc(C)n1-2` [Compound 107] the IC50 (BRDT(1)) was 187 nM, the IC50 (BRD4(1)) was 61 nM and the IC50 ([1]; NMC-797) was 107 nM. For the same molecule, the AUC(0-inf) [2] was 2920 ng·h/mL, the AUC(0-t) [2] was 2920 ng·h/mL and the MRT inf [2] was 20.2 min. It also gave a clearance [2] of 29.3 mL/min/kg, a half-life [2] of 24.7 min and a Vd [2] of 0.583 L/kg. It also gave an AUC(0-inf) [3, 4] of 532 ng·h/mL, an AUC(0-t) [3, 4] of 512 ng·h/mL and a Cmax [3, 5] of 319 ng/mL. For the same molecule, the half-life [3, 4] was 97.2 min, the Tmax [3, 6] was 30 min and the F [3] was 9.10%.

`Cc1sc2c(c1C)C(c1ccc(C#N)cc1)=N[C@@H](CC(N)=O)c1nnc(C)n1-2` [Compound 105] gave an IC50 (BRDT(1)) of 565 nM, an IC50 (BRD4(1)) of 174 nM and an IC50 ([1]; NMC-797) of 366 nM.

For `Cc1sc2c(c1C)C(c1ccc(C#N)cc1)=N[C@@H](CC(=O)OC(C)(C)C)c1nnc(C)n1-2` [Compound 100], the IC50 ([1]; NMC-797) was 185 nM.

Molecule `Cc1sc2c(c1C)C(c1ccc(C#N)cc1)=N[C@@H](CC(=O)NCCO)c1nnc(C)n1-2` [Compound 106] has an IC50 (BRDT(1)) of 105 nM, an IC50 (BRD4(1)) of 33 nM and an IC50 ([1]; NMC-797) of 328 nM.

Work on `Cc1c(CC#N)sc2c1C(c1ccc(Cl)cc1)=N[C@@H](CC(=O)NC[C@@H](C)O)c1nnc(C)n1-2` [Compound 208] yielded an IC50 (BRDT(1)) of 1200 nM, an IC50 (BRD4(1)) of 415 nM and an IC50 ([1]; NMC-797) of 6100 nM.

With `Cc1c(CC#N)sc2c1C(c1ccc(Cl)cc1)=N[C@@H](CC(=O)Nc1ccc(O)cc1)c1nnc(C)n1-2` [Compound 201] the IC50 (BRD4(1)) was 175 nM and the IC50 ([1]; NMC-797) was 1900 nM.
